Test results from patent EP1428528A1, “Synergistic combinations of dietary fiber and NSAIDs for the treatment of cancer” (Tiense Suikerraffinaderij N.V., priority 2002, dated 2004).
Marks after values point to notes of the source that are not given here.

Assays:
[1] = system: azoxymethane-induced aberrant crypt foci in rat colon; experiment: Aberrant crypt foci (ACF) study in azoxymethane-treated rats, Example 1; assay type: in vivo, male Fisher 344 weanling rats; conditions: for Total ACF / Number of foci with 1 aberrant crypt per focus / Number of foci with 2 aberrant crypts per focus / Number of foci with 3 aberrant crypts per focus / Number of foci with 4 aberrant crypts per focus / Number of foci with 5(+) (5 and more) aberrant crypts per focus: Example 1, Table 3; for Total ACF / Number of foci with 1 aberrant crypt per focus / Number of foci with 2 aberrant crypts per focus / Number of foci with 3 aberrant crypts per focus / Number of foci with 4 aberrant crypts per focus / Number of foci with 5(+) (5 and more) aberrant crypts per focus / Number of AOM-induced ACF in rat colon in proximal part / Number of AOM-induced ACF in rat colon in distal part / Number of AOM-induced ACF in rat colon in total ACF in colon: Means ± SE, n=10; for Number of foci with 1 aberrant crypt per focus / Number of foci with 2 aberrant crypts per focus / Number of foci with 3 aberrant crypts per focus / Number of foci with 4 aberrant crypts per focus / Number of foci with 5(+) (5 and more) aberrant crypts per focus: proximal and distal colon; for Number of AOM-induced ACF in rat colon in proximal part / Number of AOM-induced ACF in rat colon in distal part / Number of AOM-induced ACF in rat colon in total ACF in colon: diet 13 weeks, inulin 100 g/kg and/or NSAID 0.2 g/kg diet; for Number of AOM-induced ACF in rat colon in proximal part: AOM 16mg/kg s.c. at 7 and 8 weeks of age; for Number of AOM-induced ACF in rat colon in distal part / Number of AOM-induced ACF in rat colon in total ACF in colon: AOM 16mg/kg s.c.
Protocol: The inulin used was Synergy1 (in short Syn1) and Synergy2 (in short Syn2), which are mixtures of oligofructose (RAFTILOSE®) and inulin of av. DP of 23 to 25 (RAFTILINE®) with a total content of inulin with a DP 9 and DP 10 of maximally 5 % by weight, at a weight ratio of 1:1 and 1:2, respectively, obtained from ORAFTI (Belgium) (RAFTILOSE® and RAFTILINE® are trade names of RT/TS, Belgium). The diets were prepared fresh every week and stored at 4°C until fed. The experimental diets were formulated based on AIN 93G diets. The ingredients were obtained from ICN Biomedicals, Aurora, OH, USA. All other chemicals were obtained from Sigma Chemical Co., St. Louis, MO, USA. All the protocols involving rats have been approved by the Institutional Animal Care and Use Committee of Alabama A& M University.
(§1) After 1 week of acclimatisation, 100 male Fisher 344 weanling rats were divided into 10 groups of 10 rats per group and assigned the AIN93G (Control) diet or the experimental diets for 13 weeks. For the study, temperature was maintained at 21°C ± 1°C, relative humidity at 50%, and light and dark cycles at 12 hours each. Feed and water were provided ad libitum. Weekly body weights and daily feed intake were recorded. After adaptation, all animals received two subcutaneous injections of azoxymethane (AOM) in saline at 16mg/kg body weight at 7 and 8 weeks of age. At the end of the feeding period, the animals were sacrificed using CO2 euthanasia after an overnight's fast. Accordingly, the colons of the rats were removed, flushed with potassium phosphate buffer 0.1M (pH 7.2) and examined for aberrant crypt foci (ACF) and tumours.

[2] = system: azoxymethane-induced aberrant crypt foci in rat colon; experiment: Aberrant crypt foci (ACF) study in azoxymethane-treated rats, Example 2 (same protocol as Example 1); assay type: in vivo, Fisher 344 male rats
Protocol: as §1
In example 2, experiments similar to the ones of example 1 were carried out, to examine the anti-cancer effects of a composition containing a combination of RAFTILINE® HP and sulindac. The 4 groups each of 10 Fisher 344 male rats were given a diet containing either control diet, control diet + RAFTILINE®HP, control diet + sulindac, or control diet + RAFTILINE®HP + sulindac (RAFTILINE® : trade name of RT/TS, Belgium). The protocol of the experiments was the same as the one of example 1.

colorectal adenomas = conditions: patients with familial adenomatous polyposis; cited from earlier work
[3] = Example 2, Table 6, Means ± SEM
[4] = Example 2, inulin 100 g/kg and/or sulindac 0.2 g/kg diet, Means ± SE, n as indicated

CC(=O)Oc1ccccc1C(=O)O [Aspirin, acetyl salicylate]
Total ACF [1]: 64.40 ± 3.46^c | Number of foci with 1 aberrant crypt per focus [1]: 6.50 ± 1.12^b | Number of foci with 2 aberrant crypts per focus [1]: 12.48 ± 1.23^b | Number of foci with 3 aberrant crypts per focus [1]: 17.42 ± 1.94^b | Number of foci with 4 aberrant crypts per focus [1]: 15.86 ± 1.82^c | Number of foci with 5(+) (5 and more) aberrant crypts per focus [1]: 12.14 ± 0.86^b | Number of AOM-induced ACF in rat colon in proximal part ([1]; Example 1): 10.26 ± 1.11^b | Number of AOM-induced ACF in rat colon in distal part ([1]; Example 1): 54.14 ± 1.96^b | Number of AOM-induced ACF in rat colon in total ACF in colon ([1]; Example 1): 64.40 ± 3.46^c

CN1C(C(=O)Nc2ccccn2)=C(O)c2ccccc2S1(=O)=O [Piroxicam]
Total ACF [1]: 62.64 ± 2.86^c | Number of foci with 1 aberrant crypt per focus [1]: 4.18 ± 1.04^c | Number of foci with 2 aberrant crypts per focus [1]: 13.16 ± 1.54^b | Number of foci with 4 aberrant crypts per focus [1]: 14.78 ± 1.94^c | Number of foci with 5(+) (5 and more) aberrant crypts per focus [1]: 14.24 ± 0.94^b | Number of AOM-induced ACF in rat colon in proximal part ([1]; Example 1): 12.16 ± 1.04^b | Number of AOM-induced ACF in rat colon in distal part ([1]; Example 1): 50.48 ± 1.09^b | Number of AOM-induced ACF in rat colon in total ACF in colon ([1]; Example 1): 62.64 ± 2.86^c

CC1=C(CC(=O)O)c2cc(F)ccc2/C1=C\c1ccc([S+](C)[O-])cc1 (centres unmarked) [Sulindac]
overall reduction in ACF (total colon) compared to the control diet ([2]; Example 2): about 52% | reduction of ACF in the distal colon compared to the control diet group ([2]; Example 2): about 44% | reduction of ACF in the proximal colon compared to the control diet group ([2]; Example 2): about 74% | Number of foci with 1 aberrant crypt per focus [2, 3]: 3.50 ± 0.38 ^b | Number of foci with 2 aberrant crypts per focus [2, 3]: 11.67 ± 1.19^b | Number of foci with 3 aberrant crypts per focus [2, 3]: 22.17± 1.03 ^c | Number of foci with 4 aberrant crypts per focus [2, 3]: 22.50 ± 0.86^b | Number of foci with 5(+) (5 and more) aberrant crypts per focus [2, 3]: 15.33 ± 0.45 ^c | Total ACF [2, 3]: 75.08 ± 1.93^d | foci with 3, 4 and 5 or more aberrant crypts compared to the other groups ([2]; Example 2, statement in text): significantly lower (p<0.05) | Number of AOM-induced ACF in rat colon in distal part [2, 4]: 64.50 ± 1.54^d | Number of AOM-induced ACF in rat colon in proximal part [2, 4]: 10.58 ± 0.90^c | Number of AOM-induced ACF in rat colon, Total ACF in colon [2, 4]: 75.1 ± 1.93 | Total ACF [1]: 73.87 ± 4.25 ^b | Number of foci with 1 aberrant crypt per focus [1]: 4.08 ± 0.48^c | Number of foci with 2 aberrant crypts per focus [1]: 12.14± 2.04^b | Number of foci with 3 aberrant crypts per focus [1]: 20.37 ± 2.40^b | Number of foci with 4 aberrant crypts per focus [1]: 20.48 ± 2.48^b | Number of foci with 5(+) (5 and more) aberrant crypts per focus [1]: 16.80 ± 0.78^b | Number of AOM-induced ACF in rat colon in proximal part ([1]; Example 1): 11.24 ± 0.90^b | Number of AOM-induced ACF in rat colon in distal part ([1]; Example 1): 62.58 ± 1.68^b | Number of AOM-induced ACF in rat colon in total ACF in colon ([1]; Example 1): 73.87 ± 4.25 ^b | reduction of the incidence of ACF compared to the controls ([1]; Example 1, inulin at 10 % level and/or NSAID in diet): about 53% | number and size of colorectal adenomas compared to patients given placebo (colorectal adenomas): significantly reduce the number and size of colorectal adenomas
